According to US20240246946A1, “MODULATORS OF TREX1” (Constellation Pharmaceuticals, Inc., priority 2021, published 2024):

Key:
[1] = molecular target: T1, full length human TREX1 (Homo sapiens, UniProt Q9NSU2); experiment: TREX1 Kinetics Assays (TR-FRET association and dissociation, global fit with Kintek Explorer); assay type: binding; settings: for residence time: hTREX1, TR-FRET kinetics; for koff: hTREX1, TR-FRET, 25° C., global fit
T1 construct: N-terminally His-Tev tagged full length human TREX1; made in house; host or cells: E. coli
T1 sequence (Q9NSU2 1-314): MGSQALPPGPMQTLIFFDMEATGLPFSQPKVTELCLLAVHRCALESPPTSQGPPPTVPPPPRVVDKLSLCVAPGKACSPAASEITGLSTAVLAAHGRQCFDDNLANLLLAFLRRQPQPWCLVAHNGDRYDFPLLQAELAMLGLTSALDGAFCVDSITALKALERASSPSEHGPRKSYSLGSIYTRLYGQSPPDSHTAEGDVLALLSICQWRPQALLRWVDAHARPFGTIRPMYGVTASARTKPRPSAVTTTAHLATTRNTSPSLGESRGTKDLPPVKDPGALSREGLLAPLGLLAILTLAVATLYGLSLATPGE
Description: Compound binding kinetics were assessed using a pair of TR-FRET assays which measure the proportion of protein bound to a biotinylated TREX1 inhibitor (“probe”).
N-terminally His-Tev tagged full length human TREX1 (expressed in E. coli and purified in house), complexed with Eu-W1024-anti-6×His (“Eu”; PerkinElmer) in reaction buffer (50 mM Tris, 150 mM NaCl, 2 mM DTT, 0.1 mg/mL BSA, 0.01% (w/v) Tween-20, 5 mM MgCl2, pH 7.4) was combined with an equal volume of test compound in reaction buffer and incubated at 25° C. Concentrations at this stage were 1 nM TREX1/Eu complex, and four concentrations of compound (diluted from 10 mM stocks in 100% DMSO). At defined time points, 18 μL of this mixture was withdrawn and combined with 2 μL probe to a final concentration of 1 μM probe. After incubating for 30 seconds, 18 μL was withdrawn and combined with 2 μL streptavidin-allophycocyanin (“SA-APC”; PerkinElmer) to a final concentration of 1.5 μM SA-APC. Fifteen μL of this mixture was then immediately transferred to a 384-well Black ProxiPlate Plus (PerkinElmer) and read in an EnVision plate reader (PerkinElmer) measuring fluorescence at 615 nm and 665 nm following excitation w/337 nm laser light. Final concentrations were 0.8 nM TREX1/Eu complex, 0.9 μM probe, and 1.5 μM SA-APC.
N-terminally His-Tev tagged full length human TREX1 (expressed in E. coli and purified in house), complexed with Eu-W1024-anti-6×His (“Eu”; PerkinElmer) in reaction buffer (50 mM Tris, 150 mM NaCl, 2 mM DTT, 0.1 mg/mL BSA, 0.01% (w/v) Tween-20, 5 mM MgCl2, pH 7.4) was combined with an equal volume of test compound in reaction buffer. Concentrations at this stage were 100 nM TREX1/Eu complex and 100 nM test compound (diluted from 10 mM stocks in 100% DMSO). Following an equilibration period of at least an hour at 25° C., this mixture was diluted 100-fold into reaction buffer containing 1 μM probe, and incubated at 25° C. At defined time points, 36 μL of the reaction mixture was withdrawn and combined with 4 μL streptavidin-allophycocyanin (“SA-APC”; PerkinElmer) to a final concentration of 1.5 μM SA-APC. Fifteen μL of this mixture was then immediately transferred to duplicate wells of a 384-well Black ProxiPlate Plus (PerkinElmer) and read in an EnVision plate reader (PerkinElmer) measuring fluorescence at 615 nm and 665 nm following excitation w/337 nm laser light.
The TR-FRET signal, a ratio of 665 nm/615 nm emitted light, was converted to fraction enzyme bound to test compound by normalizing to low signal (no enzyme or test compound) and high signal (no test compound) controls. Data from both association and dissociation experiments were fitted globally using Kintek Explorer software, which computes the rate constants directly.

[2] = molecular target: T1, full length human TREX1; experiment: hTREX1 Biochemical Assay (fluorescence, dsDNA substrate degradation); settings: biochemical, read-out: hTREX1 IC50
How it was run: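 Fluorescence rises as enzyme degrades a quenched TEX615-labelled dsDNA substrate (60 nM) in 50 mM Tris, 150 mM NaCl, 5 mM MgCl2, pH 7.4. Full-length His-Tev-tagged human TREX1, 4 pM, sits with compound 4 hours at 25° C before substrate; reaction 18 hours, stopped with EDTA.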

[3] = molecular target: T2, full length mouse TREX1 (Mus musculus, UniProt Q91XB0); experiment: mTREX1 Biochemical Assay (fluorescence, dsDNA substrate degradation); settings: biochemical, read-out: mTREX1 IC50
T2 construct: N-terminally His-Tev tagged full length mouse TREX1; made in house; host or cells: E. coli
T2 sequence (Q91XB0 1-314): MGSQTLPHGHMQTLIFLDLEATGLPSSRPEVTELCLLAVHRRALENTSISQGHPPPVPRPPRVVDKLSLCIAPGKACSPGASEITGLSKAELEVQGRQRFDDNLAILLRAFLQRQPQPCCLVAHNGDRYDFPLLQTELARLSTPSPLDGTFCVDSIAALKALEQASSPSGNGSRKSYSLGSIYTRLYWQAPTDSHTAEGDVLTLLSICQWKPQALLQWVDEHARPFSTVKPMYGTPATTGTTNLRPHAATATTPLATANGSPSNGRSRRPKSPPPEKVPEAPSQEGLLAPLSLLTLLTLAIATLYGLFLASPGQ
How it was run: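 Reaction run 18 h at 25° C. with 60 nM TEX615/quencher-labelled dsDNA and 6 pM mouse TREX1 in Tris buffer (pH 7.4, 5 mM MgCl2, 1.0% DMSO), enzyme having sat 4 h with compound across 10 concentrations. EDTA quench; substrate degradation measured as fluorescence increase.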

[4] = molecular target: T3, human TREX2 (residues M44-A279) (Homo sapiens, UniProt Q9BQ50); experiment: hTREX2 Biochemical Assay (fluorescence, dsDNA substrate degradation); settings: biochemical selectivity for hTREX1 vs hTREX2
T3 construct: human TREX2 (residues M44-A279, expressed in E. coli); made in house; host or cells: E. coli
T3 sequence (Q9BQ50 44-279 isoform Q9BQ50-1): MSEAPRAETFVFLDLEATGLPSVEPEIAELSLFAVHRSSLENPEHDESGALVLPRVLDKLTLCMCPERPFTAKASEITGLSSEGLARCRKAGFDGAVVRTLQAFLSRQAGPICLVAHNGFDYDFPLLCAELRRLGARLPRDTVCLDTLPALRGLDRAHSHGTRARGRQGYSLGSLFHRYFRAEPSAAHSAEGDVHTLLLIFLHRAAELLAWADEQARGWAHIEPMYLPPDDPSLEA
How it was run: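 Fluorogenic dsDNA degradation read at 615 nm (570 nm excitation) after EDTA quench. Final 60 nM substrate, 50 pM His-Tev-tagged enzyme, 5 mM MgCl2, pH 7.4, 1.0% DMSO; 4 h compound–enzyme preincubation then 18 h reaction, both 25 °C; 10-point titration.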

[5] = molecular target: T4, hTREX1 (Homo sapiens, UniProt Q9NSU2); experiment: hTREX1 HCT116 Cell Assay (HCT116 dual cells, Lucia luciferase reporter of Type I interferon induction); assay type: cell-based; settings: TREX1i 4 h before pBR322/BstNI transfection, read after 48 h
T4 construct: host or cells: HCT116 dual cells
T4 sequence (Q9NSU2 1-314): T1 sequence (Q9NSU2 1-314)
How it was run: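 Type I interferon induction read as secreted Lucia luciferase 48 h after transfecting pBR322/BstNI digest (1 ug/mL, 100 ng/well) into HCT116 dual reporter cells. Compound added 4 h before transfection at up to 0.1% DMSO; cells in DMEM/10% FBS/25 mM HEPES at 37 °C.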

SMILES	residence time [1] [min]	koff [1] [s⁻¹]	IC50 [2] [nM]	IC50 [3] [nM]	hTREX1 vs hTREX2 selectivity [4]	IC50 [5] [nM]
Cc1cnc(C(c2ccccc2C#N)C(C)c2nc(C(=O)Nc3cnoc3)c(O)c(=O)n2C)cn1 (single isomer, unassigned) [Example 46 D1E2]	346	4.82e-05	–	–	–	–
Cc1ncc(C(c2ccccc2C#N)C(C)c2nc(C(=O)Nc3cnoc3)c(O)c(=O)n2C)cn1 (single isomer, unassigned) [Example 67 D1E2]	408	4.08e-05	< 1	–	–	–
CC(c1nc(C(=O)Nc2cnoc2)c(O)c(=O)n1C)C(c1cnn(C(F)(F)F)c1)c1ccccc1C#N (single isomer, unassigned) [Example 151 D2E1]	–	–	1 to 10	> 10	B (B = 25 to 50-fold selective for hTREX1)	> 100
CC(c1nc(C(=O)Nc2cnoc2)c(O)c(=O)n1C)C(c1ccccc1Cl)c1nncn1C (single isomer, unassigned) [Example 152 D1E1]	–	–	> 10	> 10	B (B = 25 to 50-fold selective for hTREX1)	> 100
Cc1nn(C)c(C)c1C(c1cc(F)ccc1Cl)C(C)c1nc(C(=O)Nc2cnoc2)c(O)c(=O)n1C (single isomer, unassigned) [Example 154 D1E1]	–	–	< 1	1 to 10	B (B = 25 to 50-fold selective for hTREX1)	> 100
CC(c1nc(C(=O)Nc2cnoc2)c(O)c(=O)n1C)C(c1ccccc1)c1cccnc1C#N (single isomer, unassigned) [Example 155 D1E2]	–	–	1 to 10	1 to 10	C (C = >50 fold selective for hTREX1)	> 100
CC(c1nc(C(=O)Nc2cnoc2)c(O)c(=O)n1C)C(c1ccccc1)c1cccnc1C#N (single isomer, unassigned) [Example 155 D2E1]	–	–	< 1	> 10	C (C = >50 fold selective for hTREX1)	10 to 100
Cc1nnc(C(c2ccccc2Cl)C(C)c2nc(C(=O)Nc3cnoc3)c(O)c(=O)n2C)o1 (single isomer, unassigned) [Example 156 D1E1]	–	–	> 10	> 10	A (A = <25 fold selective for hTREX1)	> 100
